Assay results reported in patent US8252837B2 (TMRC Co., Ltd., priority 2007, dated 2012).

What was measured:
[1] = test system: IL-6 dependent RARα(+) human multiple myeloma cells U266; settings: SCID mice, oral 10 mg/kg/day for 28 consecutive days, FIG. 2
[2] = Oil component (base) solubility test; type: physicochemical; settings: in propylene glycol fatty acid ester
Experimental: Oil Component (Base) Solubility Test
(75% humidity), and at 60° C.

Row | Compound | growth of U266 cells (volume of tumor) [1] | solubility and stability in the dissolved solution [2]
1 | CC1=C(/C=C/C(C)=C/C=C/C(C)=C/C(=O)O)C(C)(C)CCC1 [ATRA, all-trans retinoic acid] | inhibited the growth | 
2 | CC1(C)CCC(C)(C)c2cc(NC(=O)c3ccc(C(=O)O)cc3)ccc21 [Tamibarotene, 4-[(5,6,7,8-tetrahydro-5,5,8,8-tetramethyl-2-naphthalenyl)carbamoyl]benzoic acid] |  | optimum
